# Measured values reported in patent US20210070748A1, “INHIBITORS OF BRUTONS TYROSINE KINASE” (Pharmacyclics LLC, priority 2015, published 2021).
# Where two headings read alike, the source gives them in different places.
# How the values were obtained:
# Format in all cases: biochemical
# BTK-WT = target: T1, BTK-WT (Homo sapiens, UniProt Q06187); assay: Btk in vitro inhibitory activity (one of Method A TR-FRET, Method B electrophoretic mobility shift, Method C radiometric filter binding); conditions: read-out: IC50 BTK-WT
# T1 construct: purified from insect cells as a full-length construct containing an N-terminal 6X-His tag; His6 (N); made in house; host or cells: insect cells (baculovirus Sf21 in Method B)
# T1 sequence (Q06187 whole entry): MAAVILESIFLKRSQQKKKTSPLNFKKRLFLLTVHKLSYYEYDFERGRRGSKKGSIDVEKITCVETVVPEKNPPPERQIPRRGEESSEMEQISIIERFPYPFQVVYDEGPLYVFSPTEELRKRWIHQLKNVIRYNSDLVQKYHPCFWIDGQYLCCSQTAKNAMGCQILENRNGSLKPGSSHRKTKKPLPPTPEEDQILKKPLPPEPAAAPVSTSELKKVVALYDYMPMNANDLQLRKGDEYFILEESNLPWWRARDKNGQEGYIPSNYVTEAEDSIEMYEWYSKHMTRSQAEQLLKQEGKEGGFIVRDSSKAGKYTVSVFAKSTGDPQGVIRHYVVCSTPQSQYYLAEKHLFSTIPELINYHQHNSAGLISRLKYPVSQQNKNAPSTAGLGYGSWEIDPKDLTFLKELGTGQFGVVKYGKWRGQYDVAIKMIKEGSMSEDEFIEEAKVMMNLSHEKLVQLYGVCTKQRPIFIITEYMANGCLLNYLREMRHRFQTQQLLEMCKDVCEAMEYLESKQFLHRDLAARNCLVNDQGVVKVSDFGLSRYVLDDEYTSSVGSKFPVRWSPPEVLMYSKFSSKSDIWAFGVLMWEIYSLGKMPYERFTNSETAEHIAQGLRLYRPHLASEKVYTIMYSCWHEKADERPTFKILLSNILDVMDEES
# TXK = target: T2, TXK (Homo sapiens, UniProt P42681); assay: Inhibition of a panel of kinases, in vitro HotSpot kinase assay: TXK; conditions: Table 15, C compounds; 1 μM ATP
# T2 sequence (P42681 1-527): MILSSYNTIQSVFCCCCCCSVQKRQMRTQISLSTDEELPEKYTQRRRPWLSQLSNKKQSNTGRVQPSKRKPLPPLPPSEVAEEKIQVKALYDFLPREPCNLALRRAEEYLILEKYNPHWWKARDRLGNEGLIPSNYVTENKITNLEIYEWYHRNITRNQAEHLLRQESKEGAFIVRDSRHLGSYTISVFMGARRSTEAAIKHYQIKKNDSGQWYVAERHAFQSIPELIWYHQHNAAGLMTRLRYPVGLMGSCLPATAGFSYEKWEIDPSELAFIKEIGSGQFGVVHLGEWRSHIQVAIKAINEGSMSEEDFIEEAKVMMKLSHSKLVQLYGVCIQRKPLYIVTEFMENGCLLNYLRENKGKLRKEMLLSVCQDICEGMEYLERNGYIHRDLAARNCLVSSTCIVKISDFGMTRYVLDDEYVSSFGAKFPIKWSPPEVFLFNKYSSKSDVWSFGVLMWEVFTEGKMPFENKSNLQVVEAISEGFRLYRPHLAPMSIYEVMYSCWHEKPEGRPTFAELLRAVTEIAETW
# Description: (§1) The degree of inhibition of a panel of kinases is determined using the in vitro HotSpot kinase assay (purified enzymes, ^33P-ATP, an appropriate substrate and 1 μM ATP).
# ITK = target: T3, ITK (Homo sapiens, UniProt Q08881); assay: Inhibition of a panel of kinases, in vitro HotSpot kinase assay: ITK
# T3 sequence (Q08881 1-620): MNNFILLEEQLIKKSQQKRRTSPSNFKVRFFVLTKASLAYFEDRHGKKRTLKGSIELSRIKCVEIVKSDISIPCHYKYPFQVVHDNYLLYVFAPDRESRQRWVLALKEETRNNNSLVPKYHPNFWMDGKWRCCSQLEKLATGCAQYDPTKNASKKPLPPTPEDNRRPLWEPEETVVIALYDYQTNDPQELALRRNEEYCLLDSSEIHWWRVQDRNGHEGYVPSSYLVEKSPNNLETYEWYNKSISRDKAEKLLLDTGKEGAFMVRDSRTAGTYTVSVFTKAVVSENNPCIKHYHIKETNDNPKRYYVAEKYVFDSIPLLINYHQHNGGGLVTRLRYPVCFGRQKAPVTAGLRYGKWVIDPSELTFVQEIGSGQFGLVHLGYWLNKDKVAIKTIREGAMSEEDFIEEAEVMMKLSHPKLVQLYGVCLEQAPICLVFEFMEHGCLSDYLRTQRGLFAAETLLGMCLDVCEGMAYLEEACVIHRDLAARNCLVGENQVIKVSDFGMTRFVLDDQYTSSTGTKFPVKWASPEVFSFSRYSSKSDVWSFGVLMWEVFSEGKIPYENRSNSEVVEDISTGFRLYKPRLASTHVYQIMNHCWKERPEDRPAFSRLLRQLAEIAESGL
# Description: as §1
# TEC = target: T4, TEC (Homo sapiens, UniProt P42680); assay: Inhibition of a panel of kinases, in vitro HotSpot kinase assay: TEC
# T4 sequence (P42680 1-631): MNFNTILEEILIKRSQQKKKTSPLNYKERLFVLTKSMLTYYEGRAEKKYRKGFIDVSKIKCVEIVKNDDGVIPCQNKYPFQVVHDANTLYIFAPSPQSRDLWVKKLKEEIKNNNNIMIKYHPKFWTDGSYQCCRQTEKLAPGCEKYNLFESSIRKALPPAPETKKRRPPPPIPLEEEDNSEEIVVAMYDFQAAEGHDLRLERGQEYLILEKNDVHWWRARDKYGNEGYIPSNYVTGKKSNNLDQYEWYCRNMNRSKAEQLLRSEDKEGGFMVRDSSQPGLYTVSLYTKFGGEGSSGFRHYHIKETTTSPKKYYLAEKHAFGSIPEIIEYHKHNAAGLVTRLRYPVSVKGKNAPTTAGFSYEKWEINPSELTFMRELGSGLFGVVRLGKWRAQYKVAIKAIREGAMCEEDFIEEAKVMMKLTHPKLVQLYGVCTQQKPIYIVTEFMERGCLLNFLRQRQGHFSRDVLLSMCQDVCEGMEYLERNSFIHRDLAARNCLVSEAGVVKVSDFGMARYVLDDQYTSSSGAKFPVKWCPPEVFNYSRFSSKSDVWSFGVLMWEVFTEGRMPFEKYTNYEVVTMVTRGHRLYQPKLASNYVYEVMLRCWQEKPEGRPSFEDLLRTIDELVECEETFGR
# Description: as §1
# SRC = SRC (Homo sapiens, UniProt P12931); assay: Inhibition of a panel of kinases, in vitro HotSpot kinase assay: SRC; conditions: D-compounds panel data; 1 μM ATP
# Sequence of SRC (P12931 whole entry): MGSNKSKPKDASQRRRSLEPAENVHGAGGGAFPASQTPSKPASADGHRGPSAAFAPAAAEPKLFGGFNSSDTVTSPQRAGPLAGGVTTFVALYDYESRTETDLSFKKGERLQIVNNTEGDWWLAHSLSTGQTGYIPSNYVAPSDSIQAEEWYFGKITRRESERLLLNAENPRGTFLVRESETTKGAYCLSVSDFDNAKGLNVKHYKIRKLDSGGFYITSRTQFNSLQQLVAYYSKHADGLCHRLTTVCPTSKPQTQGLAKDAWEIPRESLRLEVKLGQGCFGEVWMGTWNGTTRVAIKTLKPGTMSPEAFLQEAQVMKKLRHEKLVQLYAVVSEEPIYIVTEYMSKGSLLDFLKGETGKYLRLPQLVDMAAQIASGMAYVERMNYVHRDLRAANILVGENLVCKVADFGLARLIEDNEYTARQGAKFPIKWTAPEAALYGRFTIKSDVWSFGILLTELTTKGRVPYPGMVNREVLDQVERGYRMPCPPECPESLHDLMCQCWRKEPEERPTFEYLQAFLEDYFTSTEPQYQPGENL
# Description: as §1
# LCK = LCK (Homo sapiens, UniProt P06239); assay: Inhibition of a panel of kinases, in vitro HotSpot kinase assay: LCK; conditions: read-out: IC50 LCK
# Sequence of LCK (P06239 whole entry): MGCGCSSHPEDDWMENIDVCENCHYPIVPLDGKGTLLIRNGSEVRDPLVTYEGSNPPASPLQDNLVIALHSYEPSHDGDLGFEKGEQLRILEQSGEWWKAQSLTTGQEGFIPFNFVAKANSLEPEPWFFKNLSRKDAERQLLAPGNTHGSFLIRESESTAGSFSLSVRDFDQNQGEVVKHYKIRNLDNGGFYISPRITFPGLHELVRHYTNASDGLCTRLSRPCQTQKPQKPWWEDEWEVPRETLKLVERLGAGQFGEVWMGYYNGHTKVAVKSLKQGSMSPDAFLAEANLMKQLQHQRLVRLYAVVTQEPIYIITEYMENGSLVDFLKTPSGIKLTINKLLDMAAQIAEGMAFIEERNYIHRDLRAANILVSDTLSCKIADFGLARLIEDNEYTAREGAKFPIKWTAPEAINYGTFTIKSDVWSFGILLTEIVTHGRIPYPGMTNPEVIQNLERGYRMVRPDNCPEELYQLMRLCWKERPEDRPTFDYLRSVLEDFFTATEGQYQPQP
# EGFR = EGFR (Homo sapiens, UniProt P00533); assay: Inhibition of a panel of kinases, in vitro HotSpot kinase assay: EGFR
# Sequence of EGFR (P00533 25-1210): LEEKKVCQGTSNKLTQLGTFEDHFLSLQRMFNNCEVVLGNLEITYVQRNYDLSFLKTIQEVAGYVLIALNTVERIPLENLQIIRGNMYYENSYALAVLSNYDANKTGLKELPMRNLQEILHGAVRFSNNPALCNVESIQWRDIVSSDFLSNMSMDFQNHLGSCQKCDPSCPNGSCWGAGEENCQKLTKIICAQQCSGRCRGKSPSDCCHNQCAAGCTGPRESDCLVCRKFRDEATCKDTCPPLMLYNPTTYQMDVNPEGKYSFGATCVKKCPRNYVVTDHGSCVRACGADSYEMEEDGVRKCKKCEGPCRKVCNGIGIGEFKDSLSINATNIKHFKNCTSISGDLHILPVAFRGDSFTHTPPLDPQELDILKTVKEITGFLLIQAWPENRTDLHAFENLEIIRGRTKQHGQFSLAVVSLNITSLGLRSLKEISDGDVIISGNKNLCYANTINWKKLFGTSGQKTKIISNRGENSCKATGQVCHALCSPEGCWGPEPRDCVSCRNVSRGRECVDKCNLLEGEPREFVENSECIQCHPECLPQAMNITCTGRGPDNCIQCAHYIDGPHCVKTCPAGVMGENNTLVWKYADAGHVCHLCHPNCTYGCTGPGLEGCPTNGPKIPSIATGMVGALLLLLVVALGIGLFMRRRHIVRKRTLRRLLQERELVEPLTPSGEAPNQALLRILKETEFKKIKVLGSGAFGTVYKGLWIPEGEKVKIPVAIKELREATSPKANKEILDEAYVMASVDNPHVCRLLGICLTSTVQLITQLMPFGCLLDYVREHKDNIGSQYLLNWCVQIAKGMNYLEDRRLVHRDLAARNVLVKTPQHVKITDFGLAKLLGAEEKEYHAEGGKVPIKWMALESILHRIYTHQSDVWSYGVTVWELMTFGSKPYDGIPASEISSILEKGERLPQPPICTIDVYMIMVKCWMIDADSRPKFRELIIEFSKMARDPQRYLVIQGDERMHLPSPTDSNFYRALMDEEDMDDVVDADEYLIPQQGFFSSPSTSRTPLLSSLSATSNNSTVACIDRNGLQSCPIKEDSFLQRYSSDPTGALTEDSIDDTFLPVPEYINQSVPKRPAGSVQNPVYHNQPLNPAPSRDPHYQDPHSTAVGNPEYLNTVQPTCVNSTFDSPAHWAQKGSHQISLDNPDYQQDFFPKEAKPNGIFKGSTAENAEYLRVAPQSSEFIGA
# Description: as §1
# [1] = Table 15, C compounds, 1 μM ATP
# [2] = D-compounds panel data, 1 μM ATP
SMILES,"IC50 (BTK-WT; Table 15, C compounds) [µM]",IC50 (TXK) [µM],IC50 (ITK; [1]) [µM],IC50 (TEC; [1]) [µM],"IC50 (LCK; E compounds, Table 17) [µM]","IC50 (BTK-WT; E compounds, Table 17) [µM]","IC50 (ITK; E compounds, Table 17) [µM]","IC50 (EGFR; E compounds, Table 17) [µM]","IC50 (TEC; E compounds, Table 17) [µM]",other results
"C=CC(=O)N1CCC[C@@H](Nc2nnc(C(N)=O)c(Nc3ccc(-c4ncccn4)cc3)n2)C1 [Example C-52, (R)-3-(1-acryloylpiperidin-3-ylamino)-5-(4-(pyrimidin-2-yl)phenylamino)-1,2,4-triazine-6-carboxamide]",≤ 0.01,≤ 0.01,0.01 to 0.1,≤ 0.01,–,–,–,–,–,–
"C=CC(=O)N1CCC[C@@H](Nc2nnc(C(N)=O)c(Nc3ccc(C(C)C)c(C)c3)n2)C1 [Example C-53, (R)-3-(1-acryloylpiperidin-3-ylamino)-5-(4-isopropyl-3-methylphenylamino)-1,2,4-triazine-6-carboxamide]",≤ 0.01,≤ 0.01,0.01 to 0.1,≤ 0.01,–,–,–,–,–,–
"C=CC(=O)N1CCC[C@@H](Nc2nnc(C(N)=O)c(Nc3ccc(C)cc3)n2)C1 [Example C-54, (R)-3-(1-acryloylpiperidin-3-ylamino)-5-(p-tolylamino)-1,2,4-triazine-6-carboxamide]",≤ 0.01,≤ 0.01,0.01 to 0.1,≤ 0.01,–,–,–,–,–,–
"C=CC(=O)N1CCC[C@@H](Nc2nnc(C(N)=O)c(Nc3ccc(C4CCN(C5CCCC5)CC4)cc3)n2)C1 [Example C-60, (R)-3-(1-acryloylpiperidin-3-ylamino)-5-(4-(1-cyclopentylpiperidin-4-yl)phenylamino)-1,2,4-triazine-6-carboxamide]",≤ 0.01,≤ 0.01,≤ 0.01,≤ 0.01,–,–,–,–,–,–
"C=CC(=O)N1CCC[C@@H](Nc2nnc(C(N)=O)c(Nc3ccc(C(C)(C)C#N)cc3)n2)C1 [Example C-61, (R)-3-(1-acryloylpiperidin-3-ylamino)-5-(4-(2-cyanopropan-2-yl)phenylamino)-1,2,4-triazine-6-carboxamide]",≤ 0.01,≤ 0.01,≤ 0.01,≤ 0.01,–,–,–,–,–,–
"C=CC(=O)N1CCC[C@@H](Nc2nnc(C(N)=O)c(Nc3ccc(I)cc3)n2)C1 [Example C-62, (R)-3-(1-acryloylpiperidin-3-ylamino)-5-(4-iodophenylamino)-1,2,4-triazine-6-carboxamide]",≤ 0.01,≤ 0.01,0.01 to 0.1,≤ 0.01,–,–,–,–,–,–
"C=CC(=O)N1CCC[C@@H](Nc2nnc(C(N)=O)c(Nc3ccc4ncsc4c3)n2)C1 [Example C-63, (R)-3-(1-acryloylpiperidin-3-ylamino)-5-(benzo[d]thiazol-6-ylamino)-1,2,4-triazine-6-carboxamide]",≤ 0.01,≤ 0.01,≤ 0.01,≤ 0.01,–,–,–,–,–,–
"C=CC(=O)N1CCC[C@@H](Nc2nnc(C(N)=O)c(Nc3ccc(Cn4cncn4)cc3)n2)C1 [Example C-64, (R)-5-(4-((1H-1,2,4-triazol-1-yl)methyl)phenyl-amino)-3-(1-acryloylpiperidin-3-ylamino)-1,2,4-triazine-6-carboxamide]",≤ 0.01,≤ 0.01,≤ 0.01,≤ 0.01,–,–,–,–,–,–
"C=CC(=O)N1CC[C@@H](N(C)c2cnc(C(N)=O)c(Nc3ccc(C4(C)CCN(C5CC5)CC4)cc3)n2)C1 [Example C-65, (R)-5-((1-acryloylpyrrolidin-3-yl)(methyl)amino)-3-(4-(1-cyclopropyl-4-methylpiperidin-4-yl)phenylamino) pyrazine-2-carboxamide]",≤ 0.01,≤ 0.01,≤ 0.01,≤ 0.01,–,–,–,–,–,–
"C=CC(=O)N1CC[C@@H](N(C)c2cnc(C(N)=O)c(Nc3ccc(C4(C)CCN(C5CCCC5)CC4)cc3)n2)C1 [Example C-67, (R)-5-((1-acryloylpyrrolidin-3-yl)(methyl)amino)-3-(4-(1-cyclopentyl-4-methylpiperidin-4-yl)phenylamino)pyrazine-2-carboxamide]",≤ 0.01,> 10,≤ 0.01,≤ 0.01,–,–,–,–,–,–
"C[C@@H]1[C@H](NC(=O)c2ccc(C3CC3)cc2)CCCN1c1cnc(C(N)=O)c(Nc2ccc(N3CCCCC3)cc2)n1 [Example D-37, 5-[(2R,3R)-3-(4-cyclopropylbenzamido)-2-methylpiperidin-1-yl]-3-{[4-(piperidin-1-yl)phenyl]amino}pyrazine-2-carboxamide]",–,–,–,–,–,–,–,–,–,IC50 (SRC): 1 to 10 µM; IC50 (LCK; [2]): 0.1 to 1 µM; IC50 (BTK-WT; D-compounds panel data): 0.01 to 0.1 µM; IC50 (ITK; [2]): 1 to 10 µM; IC50 (EGFR; [2]): 0.1 to 1 µM; IC50 (TEC; [2]): 0.01 to 0.1 µM
"C=CC(=O)N1CCC[C@@H](Nc2nnc(C(N)=O)c(Nc3cccc(-n4nccn4)c3)n2)C1 [Example E-61, (R)-5-(3-(2H-1,2,3-triazol-2-yl)phenylamino)-3-(1-acryloylpiperidin-3-ylamino)-1,2,4-triazine-6-carboxamide]",–,–,–,–,0.1 to 1,≤ 0.01,0.01 to 0.1,0.01 to 0.1,≤ 0.01,–
"C=CC(=O)N1CCC[C@@H](Nc2nnc(C(N)=O)c(Nc3ccc(-n4nccn4)cc3)n2)C1 [Example E-67, (R)-5-(4-(2H-1,2,3-triazol-2-yl)phenylamino)-3-(1-acryloylpiperidin-3-ylamino)-1,2,4-triazine-6-carboxamide]",–,–,–,–,0.1 to 1,≤ 0.01,0.01 to 0.1,0.01 to 0.1,≤ 0.01,–
"C=CC(=O)N1CCC[C@@H](Nc2nnc(C(N)=O)c(Nc3ccc4ncccc4c3)n2)C1 [Example E-68, (R)-3-(1-acryloylpiperidin-3-ylamino)-5-(quinolin-6-ylamino)-1,2,4-triazine-6-carboxamide]",–,–,–,–,0.1 to 1,≤ 0.01,≤ 0.01,≤ 0.01,≤ 0.01,–
"C=CC(=O)N1CCC[C@@H](Nc2cnc(C(N)=O)c(Nc3ccc(C4CCN(C5CCCC5)CC4)cc3)n2)[C@H]1C [Example E-99, 5-((2R,3R)-1-acryloyl-2-methylpiperidin-3-ylamino)-3-(4-(1-cyclopentylpiperidin-4-yl)phenylamino)pyrazine-2-carboxamide]",–,–,–,–,0.01 to 0.1,≤ 0.01,≤ 0.01,≤ 0.01,≤ 0.01,–
"C=CC(=O)N1CCC[C@@H](Nc2cnc(C(N)=O)c(Nc3ccc(C4(C)CCN(C5CCCC5)CC4)cc3)n2)[C@H]1C [Example E-100, 5-((2R,3R)-1-acryloyl-2-methylpiperidin-3-ylamino)-3-(4-(1-cyclopentyl-4-methylpiperidin-4-yl)phenylamino)pyrazine-2-carboxamide]",–,–,–,–,0.01 to 0.1,≤ 0.01,≤ 0.01,≤ 0.01,≤ 0.01,–
